Data reported in patent publication US20230016007A1, “SOLUTIONS AND METHODS FOR FORMING AN EXOGENOUS FLEXIBLE FILM, WHICH INCLUDES A SUPPLEMENTAL COMPONENT, ON A PLANT AND PLANTS INCLUDING THE EXOGENOUS FLEXIBLE FILM” (Cultiva, LLC, priority 2017, published 2023).

Test system: grey mold (Botrytis cinerea)
Experiment: grey mold on Frontelis strawberries 7 days post-harvest (FIG. 11)
Method: The four groups were evaluated for infestation with grey mold 7 days post-harvest.

CC1(C(=O)Nc2ccc(O)c(Cl)c2Cl)CCCCC1 [Fenhexamid]
infestation with grey mold: exhibited at least some infestation
